Columns and labels:
human insulin receptor = human insulin receptor (Homo sapiens, UniProt P06213); test: Assay (I): insulin receptor binding, SPA microtiterplate antibody capture assay; settings: purified recombinant human insulin receptor - exon 11; A14 Tyr[125I]-human insulin tracer; human insulin = 100%
Method: Insulin Receptor Binding of the Acylated, Single-Chain Insulin
The affinity of the acylated, single-chain insulins for the human insulin receptor can be determined by a SPA assay (Scintillation Proximity Assay) microtiterplate antibody capture assay. SPA-PVT antibody-binding beads, anti-mouse reagent (Amersham Biosciences, Cat No. PRNQ0017) are mixed with 25 ml of binding buffer (100 mM HEPES pH 7.8; 100 mM sodium chloride, 10 mM MgSO4, 0.025% Tween-20). Reagent mix for a single Packard Optiplate (Packard No. 6005190) is composed of 2.4 μl of a 1:5000 diluted purified recombinant human insulin receptor—exon 11, an amount of a stock solution of A14 Tyr[125I]-human insulin corresponding to 5000 cpm per 100 μl of reagent mix, 12 μl of a 1:1000 dilution of F12 antibody, 3 ml of SPA-beads and binding buffer to a total of 12 ml. A total of 100 μl is then added and a dilution series is made from appropriate samples. To the dilution series is then added 100 μl of reagent mix and the samples are incubated for 16 hours while gently shaken. The phases are then separated by centrifugation for 1 min and the plates counted in a Topcounter. The binding data are fitted using the nonlinear regression algorithm in the GraphPad Prism 2.01 (GraphPad Software, San Diego, Calif.).

[1] = target: purified recombinant human insulin receptor-exon 11 (human) (UniProt P06213); test: assay (I): SPA, displacement of A14 Tyr[125I]-human insulin from recombinant human insulin receptor
Chain of purified recombinant human insulin receptor-exon 11 (human) (P06213 other isoform, or with tags, fused parts or gaps limits assumed, form in doubt): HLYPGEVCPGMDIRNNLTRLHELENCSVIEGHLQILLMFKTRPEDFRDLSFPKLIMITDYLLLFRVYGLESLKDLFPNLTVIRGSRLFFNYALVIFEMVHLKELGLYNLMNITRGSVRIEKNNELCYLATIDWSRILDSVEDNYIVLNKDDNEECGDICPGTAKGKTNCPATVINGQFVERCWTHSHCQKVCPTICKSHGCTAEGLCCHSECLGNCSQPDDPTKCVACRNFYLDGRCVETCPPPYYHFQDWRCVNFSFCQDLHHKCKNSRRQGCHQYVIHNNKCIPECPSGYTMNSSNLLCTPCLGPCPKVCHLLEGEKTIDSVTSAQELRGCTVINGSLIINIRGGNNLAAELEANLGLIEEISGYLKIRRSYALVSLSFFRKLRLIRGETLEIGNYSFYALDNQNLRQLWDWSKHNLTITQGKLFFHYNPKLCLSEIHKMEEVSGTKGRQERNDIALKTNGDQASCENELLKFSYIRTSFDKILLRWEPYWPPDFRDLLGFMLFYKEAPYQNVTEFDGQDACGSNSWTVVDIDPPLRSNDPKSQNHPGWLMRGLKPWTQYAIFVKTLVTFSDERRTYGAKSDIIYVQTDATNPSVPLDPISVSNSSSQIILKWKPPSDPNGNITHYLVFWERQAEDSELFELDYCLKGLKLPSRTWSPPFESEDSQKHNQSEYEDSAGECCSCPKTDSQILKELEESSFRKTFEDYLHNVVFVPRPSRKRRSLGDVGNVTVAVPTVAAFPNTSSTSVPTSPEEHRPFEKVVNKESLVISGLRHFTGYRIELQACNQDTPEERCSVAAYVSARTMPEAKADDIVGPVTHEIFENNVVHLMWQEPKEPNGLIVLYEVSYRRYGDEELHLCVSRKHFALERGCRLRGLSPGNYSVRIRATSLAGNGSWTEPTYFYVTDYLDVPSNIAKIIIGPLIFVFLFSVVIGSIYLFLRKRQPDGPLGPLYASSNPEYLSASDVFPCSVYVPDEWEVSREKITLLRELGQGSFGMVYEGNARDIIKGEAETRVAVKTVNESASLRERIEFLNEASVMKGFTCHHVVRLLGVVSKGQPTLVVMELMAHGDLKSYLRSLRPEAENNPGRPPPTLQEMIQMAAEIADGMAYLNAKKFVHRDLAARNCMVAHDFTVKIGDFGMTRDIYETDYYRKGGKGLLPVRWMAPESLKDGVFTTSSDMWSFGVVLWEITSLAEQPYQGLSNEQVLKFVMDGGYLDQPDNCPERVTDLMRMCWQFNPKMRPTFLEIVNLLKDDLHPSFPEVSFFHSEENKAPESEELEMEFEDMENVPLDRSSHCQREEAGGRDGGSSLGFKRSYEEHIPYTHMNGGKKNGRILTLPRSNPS

Chain of human insulin receptor (P06213 28-746 isoform P06213-2 limits assumed): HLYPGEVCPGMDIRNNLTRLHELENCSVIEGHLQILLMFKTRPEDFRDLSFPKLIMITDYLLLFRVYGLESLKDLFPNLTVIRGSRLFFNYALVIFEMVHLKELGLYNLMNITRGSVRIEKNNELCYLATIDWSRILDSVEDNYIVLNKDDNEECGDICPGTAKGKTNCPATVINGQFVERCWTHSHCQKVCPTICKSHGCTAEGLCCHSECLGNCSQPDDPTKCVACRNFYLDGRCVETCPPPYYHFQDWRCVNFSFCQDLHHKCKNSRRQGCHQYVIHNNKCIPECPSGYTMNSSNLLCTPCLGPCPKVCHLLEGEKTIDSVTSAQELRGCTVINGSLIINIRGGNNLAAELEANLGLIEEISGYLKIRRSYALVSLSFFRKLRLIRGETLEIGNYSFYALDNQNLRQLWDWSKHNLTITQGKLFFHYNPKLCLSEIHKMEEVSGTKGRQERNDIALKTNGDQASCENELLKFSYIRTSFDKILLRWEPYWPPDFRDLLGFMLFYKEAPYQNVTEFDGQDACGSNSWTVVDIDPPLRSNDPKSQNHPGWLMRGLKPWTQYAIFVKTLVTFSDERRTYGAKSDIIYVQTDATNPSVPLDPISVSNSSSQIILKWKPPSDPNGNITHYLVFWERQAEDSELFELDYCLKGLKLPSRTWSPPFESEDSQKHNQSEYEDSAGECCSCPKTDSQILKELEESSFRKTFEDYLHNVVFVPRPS
Chain of human insulin receptor (P06213 763-1382 partner limits assumed): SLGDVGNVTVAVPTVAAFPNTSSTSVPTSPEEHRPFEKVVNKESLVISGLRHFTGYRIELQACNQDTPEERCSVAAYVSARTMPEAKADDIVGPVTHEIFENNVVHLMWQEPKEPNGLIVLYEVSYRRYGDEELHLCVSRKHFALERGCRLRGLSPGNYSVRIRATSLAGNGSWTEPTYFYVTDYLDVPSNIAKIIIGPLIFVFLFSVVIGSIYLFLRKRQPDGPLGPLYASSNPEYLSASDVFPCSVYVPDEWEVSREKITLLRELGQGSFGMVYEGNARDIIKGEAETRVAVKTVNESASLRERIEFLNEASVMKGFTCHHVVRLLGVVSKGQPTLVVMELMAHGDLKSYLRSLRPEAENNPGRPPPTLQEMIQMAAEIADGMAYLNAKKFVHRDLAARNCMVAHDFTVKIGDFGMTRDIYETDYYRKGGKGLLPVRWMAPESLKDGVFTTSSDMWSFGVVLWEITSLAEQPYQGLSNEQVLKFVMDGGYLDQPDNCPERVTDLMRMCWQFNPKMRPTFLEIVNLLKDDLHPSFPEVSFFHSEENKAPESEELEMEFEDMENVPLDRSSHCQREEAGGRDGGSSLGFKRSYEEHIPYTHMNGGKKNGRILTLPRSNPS

Question: “B(1-29)-B29A-VGLSSGQ-A(1-21)-A8K(N(eps)hexadecandioyl-gGlu)-A18Q Human Insulin [Example 6]” was tested. Which “insulin receptor binding relative to that of human insulin” value (human insulin receptor) did it give?
Answer: The value was 73%.

Question: Which insulin receptor binding relative to that of human insulin [1] does the source give for “B(1-29)-B29A-VGLSSGQ-A(1-21)-A15K(N(eps)-hexadecandioyl-g-L-Glu)-A18Q Human Insulin (from UniProt P01308 25-53; P01308 90-110) (ligand)” here?
Answer: Its insulin receptor binding relative to that of human insulin is 17.4%.

Question: Which “insulin receptor binding relative to that of human insulin” value (human insulin receptor) does the source give for “B(1-29)-B29A-VGLSSGQ-A(1-21)-A18K(N(eps)myristoyl) Human Insulin [Example 3]” here?
Answer: The value was 27%.

Question: With “B(1-29)-B29A-VGLSSGQ-A(1-22)-A18Q-A22K((eps)heptadecandioyl-g-Glu) Human Insulin [Example 10]” as the substance, how does the “insulin receptor binding relative to that of human insulin” value (human insulin receptor) read?
Answer: Its value is 43%.

Question: With “B(1-29)-B29A-VGLSSGQ-A(1-22)-A18Q, A22K(N(eps)hexadecandioyl-gGlu) Human Insulin (from UniProt P01308 25-53; P01308 90-110) (ligand)” as the substance, how does the insulin receptor binding relative to that of human insulin [1] read?
Answer: Its insulin receptor binding relative to that of human insulin is 44%.

Question: How did the insulin receptor binding relative to that of human insulin [1] turn out when “B(1-29)-B29Q-TGLGSCR-A(1-22)-A18Q, A21 G-A22K(N (eps)hexadecand ioyl-g-LGlu) Human Insulin (from UniProt P01308 25-53; P01308 90-110) (ligand)” was run?
Answer: Its insulin receptor binding relative to that of human insulin is 113%.

Question: With “B(1-29)-B29A-VGLSSGQ-A(1-22)-A18Q, A22K(N(eps)hexadecandioyl-gGlu) Human Insulin [Example 4]” as the substance, how does the “insulin receptor binding relative to that of human insulin” value (human insulin receptor) read?
Answer: The value was 44%.

Question: “B(1-29)-B29A-VGLSSGQ-A(1-21)-A15K(N(eps)-hexadecandioyl-g-L-Glu)-A18Q Human Insulin [Example 9]” was tested. Which “insulin receptor binding relative to that of human insulin” value (human insulin receptor) did it give?
Answer: The value was 17.4%.

Question: “B(1-29)-B29A-VGLSSGQ-A(1-22)-A18Q, A22K(N(eps)myristoyl) Human Insulin [Example 2]” was tested. Which “insulin receptor binding relative to that of human insulin” value (human insulin receptor) did it give?
Answer: Its value is 62%.

Question: “B(1-29)-B29A-VGLSSGQ-A(1-21)-A18K(N(eps)myristoyl) Human Insulin (from UniProt P01308 25-53; P01308 90-110) (ligand)” was tested. Which insulin receptor binding relative to that of human insulin [1] did it give?
Answer: Its insulin receptor binding relative to that of human insulin is 27%.

Question: How did the insulin receptor binding relative to that of human insulin [1] turn out when “B(1-29)-B29H-TGLGSGR-A(1-21)-A18K(N-eps-hexadecandioyl-g-L-Glu)-A21 G Human insulin (from UniProt P01308 25-53; P01308 90-110) (ligand)” was run?
Answer: Its insulin receptor binding relative to that of human insulin is 45.7%.

Question: For “B(1-29)-B29A-VGLSSGQ-A(1-21)-A18K(N(eps)hexadecandioyl-gGlu) Human Insulin [Example 1]”, which “insulin receptor binding relative to that of human insulin” value (human insulin receptor) is on record?
Answer: Its value is 25%.

Question: For “B(1-29)-B29A-VGLSSGQ-A(1-22)-A18Q-A22K((eps)heptadecandioyl-g-Glu) Human Insulin (from UniProt P01308 25-53; P01308 90-110) (ligand)”, which insulin receptor binding relative to that of human insulin [1] is on record?
Answer: Its insulin receptor binding relative to that of human insulin is 43%.

Question: Which “insulin receptor binding relative to that of human insulin” value (human insulin receptor) does the source give for “B(1-29)-B29A-VGLSSGQ-A(1-22)-A18Q, A22K(N(eps)octadecandioyl) Human Insulin [Example 5]” here?
Answer: The value was 24%.

Question: “B(1-29)-B29A-VGLSSGQ-A(1-21)-A8K(N(eps)hexadecandioyl-gGlu)-A18Q Human Insulin (from UniProt P01308 25-53; P01308 90-110) (ligand)” was tested. Which insulin receptor binding relative to that of human insulin [1] did it give?
Answer: Its insulin receptor binding relative to that of human insulin is 73%.

Question: How did the “insulin receptor binding relative to that of human insulin” value (human insulin receptor) turn out when “B(1-29)-B29Q-TGLGSCR-A(1-22)-A18Q, A21 G-A22K(N (eps)hexadecand ioyl-g-LGlu) Human Insulin [Example 8]” was run?
Answer: The value was 112.8%.

Question: How did the “insulin receptor binding relative to that of human insulin” value (human insulin receptor) turn out when “B(1-29)-B29H-TGLGSGR-A(1-21)-A18K(N-eps-hexadecandioyl-g-L-Glu)-A21 G Human insulin [Example 7]” was run?
Answer: The value was 45.7%.

Question: How did the insulin receptor binding relative to that of human insulin [1] turn out when “B(1-29)-B29A-VGLSSGQ-A(1-22)-A18Q, A22K(N(eps)myristoyl) Human Insulin (from UniProt P01308 25-53; P01308 90-110) (ligand)” was run?
Answer: Its insulin receptor binding relative to that of human insulin is 62%.

Question: With “B(1-29)-B29A-VGLSSGQ-A(1-22)-A18Q, A22K(N(eps)octadecandioyl) Human Insulin (from UniProt P01308 25-53; P01308 90-110) (ligand)” as the substance, how does the insulin receptor binding relative to that of human insulin [1] read?
Answer: Its insulin receptor binding relative to that of human insulin is 24%.

Question: “B(1-29)-B29A-VGLSSGQ-A(1-21)-A18K(N(eps)hexadecandioyl-gGlu) Human Insulin (from UniProt P01308 25-53; P01308 90-110) (ligand)” was tested. Which insulin receptor binding relative to that of human insulin [1] did it give?
Answer: The insulin receptor binding relative to that of human insulin was 25%.
